Values quoted from earlier work in patent US8091801B2, “Generation of therapeutic microfoam” (BTG International Limited, priority 1999, dated 2012).

Conditions: in water at STP

Row | Mole Fraction Solubility | SMILES
1 | 2.3 10^−5 | O=O [Oxygen]
2 | 43.7 10^−5 | [N-]=[N+]=O [Nitrous oxide]

Row | SMILES | Mole Fraction Solubility
3 | [He] [Helium] | 0.7 10^−5
